Test results published in ChEMBL document CHEMBL1201862, “PubChem BioAssay data set” (2004).
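All cell lines were grown in 96-well plates and treated with compound for 48 hours. GI50 marks 50% less growth.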 The source made the active and inactive calls. Cut-off read from the data, not from the text of the source: active = GI50 up to about 1.1 µM and inactive = higher.

Key:
Test in all cases: NCI tumour cell line growth inhibition, 48 h
CCRF-CEM = tested on: CCRF-CEM
NCI-H460 = tested on: NCI-H460
A549 = tested on: A549
UACC-257 = tested on: UACC-257
UO-31 = tested on: UO-31
OVCAR-4 = tested on: OVCAR-4
DU-145 = tested on: DU-145
SR = tested on: SR
K562 = tested on: K562
MCF7 = tested on: MCF7
SK-MEL-28 = tested on: SK-MEL-28
OVCAR-8 = tested on: OVCAR-8
786-0 = tested on: 786-0
UACC-62 = tested on: UACC-62
HCC 2998 = tested on: HCC 2998
U-251 = tested on: U-251
HOP-92 = tested on: HOP-92
SF-539 = tested on: SF-539
CAKI-1 = tested on: CAKI-1

Row | Compound | GI50 (CCRF-CEM) | GI50 (NCI-H460) | GI50 (A549) | GI50 (UACC-257) | GI50 (UO-31) | GI50 (OVCAR-4) | GI50 (DU-145) | GI50 (SR) | GI50 (K562) | GI50 (MCF7) | GI50 (SK-MEL-28) | GI50 (OVCAR-8) | GI50 (786-0) | GI50 (UACC-62) | GI50 (HCC 2998) | GI50 (U-251) | GI50 (HOP-92) | GI50 (SF-539) | GI50 (CAKI-1)
1 | Nn1nnc2ccccc21 | > 100 µM (inactive) | > 100 µM (inactive) | > 100 µM (inactive) | > 100 µM (inactive) | > 100 µM (inactive) | > 100 µM (inactive) | > 100 µM (inactive) | > 100 µM (inactive) | > 100 µM (inactive) | > 100 µM (inactive) | > 100 µM (inactive) | > 100 µM (inactive) | > 100 µM (inactive) | > 100 µM (inactive) | > 100 µM (inactive) | > 100 µM (inactive) | > 100 µM (inactive) | – | –
2 | Cc1ccccc1N/C(=C(/C(Cl)=C(Cl)Cl)[N+](=O)[O-])n1nnc2ccccc21 | 29.6 µM (inactive) | 14.2 µM (inactive) | 41.7 µM (inactive) | 28.9 µM (inactive) | 16.7 µM (inactive) | 17.5 µM (inactive) | 22.4 µM (inactive) | – | 21.1 µM (inactive) | 27.7 µM (inactive) | 17 µM (inactive) | – | 34 µM (inactive) | 22.7 µM (inactive) | 18 µM (inactive) | 16.3 µM (inactive) | – | 17.6 µM (inactive) | 20.4 µM (inactive)
3 | CCN(CC)C(=O)Cn1c2ccccc2[n+]2cc(N)ccc12 | > 100 µM (inactive) | > 100 µM (inactive) | > 100 µM (inactive) | > 100 µM (inactive) | > 100 µM (inactive) | > 100 µM (inactive) | > 100 µM (inactive) | > 100 µM (inactive) | > 100 µM (inactive) | > 100 µM (inactive) | > 100 µM (inactive) | > 100 µM (inactive) | > 100 µM (inactive) | > 100 µM (inactive) | > 100 µM (inactive) | > 100 µM (inactive) | > 100 µM (inactive) | > 100 µM (inactive) | > 100 µM (inactive)
4 | CN/C(=N/C#N)NCc1ccccc1 | > 100 µM (inactive) | > 100 µM (inactive) | > 100 µM (inactive) | > 100 µM (inactive) | > 100 µM (inactive) | > 100 µM (inactive) | – | > 100 µM (inactive) | – | – | > 100 µM (inactive) | > 100 µM (inactive) | > 100 µM (inactive) | – | 27.4 µM (inactive) | > 100 µM (inactive) | > 100 µM (inactive) | > 100 µM (inactive) | > 100 µM (inactive)
5 | c1ccc(-c2cnc3nc4ccccc4nc3n2)cc1 | 0.301 µM (active) | 2.96 µM (inactive) | 10 µM (inactive) | 2.25 µM (inactive) | 4.58 µM (inactive) | 1.72 µM (inactive) | 3.83 µM (inactive) | 0.826 µM (active) | 2.51 µM (inactive) | 1.82 µM (inactive) | 14.7 µM (inactive) | 1.98 µM (inactive) | 3.9 µM (inactive) | 2.85 µM (inactive) | 11.7 µM (inactive) | 4.94 µM (inactive) | – | 3.25 µM (inactive) | 0.942 µM (active)
6 | O=C(c1ccccc1)C1OC12C(=O)Nc1c(Cl)cc(Cl)cc12 (centres undefined) | 8.65 µM (inactive) | 30.3 µM (inactive) | > 64.9 µM (inactive) | > 100 µM (inactive) | > 57.1 µM (inactive) | 8.2 µM (inactive) | – | 11.6 µM (inactive) | 15.3 µM (inactive) | – | > 100 µM (inactive) | 17 µM (inactive) | 16.3 µM (inactive) | 29.9 µM (inactive) | > 92.3 µM (inactive) | 41.5 µM (inactive) | > 35.9 µM (inactive) | 45.8 µM (inactive) | 24.8 µM (inactive)
7 | O=C1NC(=S)NC(=O)C1=Cc1ccc[nH]1 | 19.2 µM (inactive) | 8.11 µM (inactive) | 26.7 µM (inactive) | 20.9 µM (inactive) | 16.6 µM (inactive) | 15.3 µM (inactive) | – | 3.62 µM (inactive) | 11.2 µM (inactive) | – | 24.5 µM (inactive) | 4.71 µM (inactive) | 10.6 µM (inactive) | 16.7 µM (inactive) | 11.8 µM (inactive) | 27.1 µM (inactive) | 19.6 µM (inactive) | 15.1 µM (inactive) | 11.2 µM (inactive)
8 | O=C(Nc1ccc(Cl)cc1)c1cc2c(cc1Cl)SC(NNCCO)=NS2(=O)=O | > 100 µM (inactive) | > 100 µM (inactive) | – | > 100 µM (inactive) | > 100 µM (inactive) | > 100 µM (inactive) | > 100 µM (inactive) | > 100 µM (inactive) | 27.9 µM (inactive) | 98.9 µM (inactive) | > 100 µM (inactive) | > 100 µM (inactive) | > 100 µM (inactive) | > 100 µM (inactive) | > 100 µM (inactive) | > 100 µM (inactive) | 92.3 µM (inactive) | > 100 µM (inactive) | > 100 µM (inactive)
9 | COc1cc2c(cc1OC)C(N)CC2=O (centres undefined) | > 100 µM (inactive) | – | > 100 µM (inactive) | > 100 µM (inactive) | > 100 µM (inactive) | > 100 µM (inactive) | > 100 µM (inactive) | > 100 µM (inactive) | > 100 µM (inactive) | > 100 µM (inactive) | > 100 µM (inactive) | > 100 µM (inactive) | > 100 µM (inactive) | > 100 µM (inactive) | > 100 µM (inactive) | > 100 µM (inactive) | > 100 µM (inactive) | > 100 µM (inactive) | > 100 µM (inactive)
10 | CCOC(=O)C[n+]1cccc(C2(c3cc4ccccc4[nH]3)OCCO2)c1 | > 100 µM (inactive) | > 100 µM (inactive) | > 100 µM (inactive) | > 100 µM (inactive) | > 100 µM (inactive) | > 100 µM (inactive) | > 100 µM (inactive) | > 100 µM (inactive) | > 100 µM (inactive) | > 100 µM (inactive) | > 100 µM (inactive) | > 100 µM (inactive) | > 100 µM (inactive) | > 100 µM (inactive) | > 100 µM (inactive) | > 100 µM (inactive) | > 100 µM (inactive) | > 100 µM (inactive) | > 100 µM (inactive)
11 | O=C(Cc1ccc(O)c(O)c1)NCc1c[nH]c2ccccc12 | 6.95 µM (inactive) | 40.6 µM (inactive) | 64.7 µM (inactive) | 70.5 µM (inactive) | 42.3 µM (inactive) | 37 µM (inactive) | 29.1 µM (inactive) | – | 38.5 µM (inactive) | 42 µM (inactive) | 83.6 µM (inactive) | 71.6 µM (inactive) | 33.7 µM (inactive) | – | 62.2 µM (inactive) | – | > 100 µM (inactive) | 43.8 µM (inactive) | 31.2 µM (inactive)
12 | Cc1ccc(S(=O)(=O)Nc2cccc(C)c2C)cc1 | 40.5 µM (inactive) | 46.6 µM (inactive) | 59.6 µM (inactive) | 30.8 µM (inactive) | 30.8 µM (inactive) | 19.5 µM (inactive) | – | 52.5 µM (inactive) | 36.6 µM (inactive) | – | 30.4 µM (inactive) | 72.4 µM (inactive) | > 100 µM (inactive) | 66.1 µM (inactive) | > 100 µM (inactive) | 28.4 µM (inactive) | 29.5 µM (inactive) | > 100 µM (inactive) | –
13 | C=C(C[N+](C)(C)C)N/N=C/c1oc(-c2ccc(OC)c(OC)c2)c(-c2ccc(OC)c(OC)c2)c1[N+](=O)[O-] | 13.6 µM (inactive) | 18.5 µM (inactive) | 38.5 µM (inactive) | 20.2 µM (inactive) | 18.9 µM (inactive) | 18.5 µM (inactive) | 34.1 µM (inactive) | 4.69 µM (inactive) | 19.1 µM (inactive) | – | 18.3 µM (inactive) | 15.8 µM (inactive) | 17.6 µM (inactive) | > 10 µM (inactive) | 19.3 µM (inactive) | 19.5 µM (inactive) | 19.6 µM (inactive) | 16.7 µM (inactive) | 32.6 µM (inactive)
14 | CC1=C(C(=O)Nc2ccccc2C)C(c2ccccc2C)C(C(=O)Nc2ccccc2C)=C(C)N1 | – | 22.6 µM (inactive) | 30.6 µM (inactive) | 27.5 µM (inactive) | 14.5 µM (inactive) | 24.4 µM (inactive) | – | 24.2 µM (inactive) | 19.8 µM (inactive) | – | 19.9 µM (inactive) | 19.1 µM (inactive) | 17.6 µM (inactive) | – | 18.5 µM (inactive) | 19.5 µM (inactive) | 10.1 µM (inactive) | > 10 µM (inactive) | –
15 | O=[N+]([O-])c1c(Br)cc(Br)c2c1Nc1c(ccc(Cl)c1Cl)S2 | 2.39 µM (inactive) | 17.8 µM (inactive) | 20.2 µM (inactive) | 8.49 µM (inactive) | 7.91 µM (inactive) | 13.9 µM (inactive) | 14.1 µM (inactive) | 5.86 µM (inactive) | 3.45 µM (inactive) | 2.87 µM (inactive) | 16.6 µM (inactive) | 2.79 µM (inactive) | 9.18 µM (inactive) | 16 µM (inactive) | 12.4 µM (inactive) | 17.9 µM (inactive) | 18.7 µM (inactive) | 22.2 µM (inactive) | 16.5 µM (inactive)
16 | O=[N+]([O-])c1ccc2nnnn2c1 | – | 31.6 µM (inactive) | 45.3 µM (inactive) | 27.8 µM (inactive) | 7.89 µM (inactive) | 78.7 µM (inactive) | 37.2 µM (inactive) | 4.76 µM (inactive) | 3.18 µM (inactive) | 24 µM (inactive) | 20.8 µM (inactive) | 44.1 µM (inactive) | 22.2 µM (inactive) | 13.4 µM (inactive) | – | 23.2 µM (inactive) | 96.6 µM (inactive) | 14.9 µM (inactive) | 17.6 µM (inactive)
